The results in this text go back to PubChem BioAssay AID1259411 (Chemical Carcinogenesis Research Information System (CCRIS), 2018).

Activity calls are given as the source filed them. The rule behind the calls is not given here.

The data set concerns rodent carcinogenicity bioassays, tumor incidence. As to the kind of experiment: CCRIS carcinogenicity studies. The procedure, abridged:
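NCI-built, expert-reviewed records of carcinogenicity and related test outcomes (mutagenicity, tumor promotion/inhibition) compiled from published and report sources, historical span 1985-2011, not updated.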

`Nc1cc(S(=O)(=O)O)cc2c1C(=O)/C(=N/Nc1ccc(-c3ccc(N/N=C4/C(=O)c5c(N)cc(S(=O)(=O)O)cc5C=C4S(=O)(=O)O)cc3)cc1)C(S(=O)(=O)O)=C2`: the carcinogen call is “active; positive” (Species: RAT, Strain/Sex: F344/FEMALE, Route: ORAL, Dose: 0, 190, 375, 750, 1500, 3000 PPM IN DIET FOR 91 D (STUDY DURATION: 93 D), Dose: 0, 190, 375, 750, 1500, 3000 PPM IN DIET FOR 91 D (STUDY DURATION: 93 D), Tumor Site: Type of Lesion: LIVER: HEPATOCELLULAR CARCINOMA OR NEOPLASTIC NODULE, FOCI OF CELLULAR ALTERATION OR BASOPHILIC FOCI) and “active; positive” (Species: RAT, Strain/Sex: F344/MALE, Route: ORAL, Dose: 0, 190, 375, 750, 1500, 3000 PPM IN DIET FOR 91 D (STUDY DURATION: 93 D), Dose: 0, 190, 375, 750, 1500, 3000 PPM IN DIET FOR 91 D (STUDY DURATION: 93 D), Tumor Site: Type of Lesion: LIVER: HEPATOCELLULAR CARCINOMA OR NEOPLASTIC NODULE, FOCI OF CELLULAR ALTERATION OR BASOPHILIC FOCI).

Consider `CCc1ccc(C(c2ccc(CC)cc2)C(Cl)Cl)cc1`, for which the carcinogen call runs as follows: (Species: MOUSE, Strain/Sex: B6C3F1/FEMALE, Route: ORAL, Dose: 0, 5000 IN DIET FOR FIRST 48 WK FOLLOWED BY 1000 PPM IN DIET FOR LAST 57 WK, 10000 PPM IN DIET FOR 48 WK FOLLOWED BY 300, Dose: 0, 5000 IN DIET FOR FIRST 48 WK FOLLOWED BY 1000 PPM IN DIET FOR LAST 57 WK, 10000 PPM IN DIET FOR 48 WK FOLLOWED BY 300, Tumor Site: Type of Lesion: LIVER: HEPATOCELLULAR CARCINOMA OR ADENOMA) “equivocal”; (Species: MOUSE, Strain/Sex: B6C3F1/MALE, Route: ORAL, Dose: 0, 2,500, 5,000 PPM IN DIET FOR 105 WK (STUDY DURATION: 105 WK), Dose: 0, 2,500, 5,000 PPM IN DIET FOR 105 WK (STUDY DURATION: 105 WK)) “inactive; negative”; (Species: RAT, Strain/Sex: F344/FEMALE, Route: ORAL, Dose: 0, 3,500, 7,000 PPM IN DIET FOR 105 WK (STUDY DURATION: 105 WK), Dose: 0, 3,500, 7,000 PPM IN DIET FOR 105 WK (STUDY DURATION: 105 WK)) “inactive; negative”; (Species: RAT, Strain/Sex: F344/MALE, Route: ORAL, Dose: 0, 3,500, 7,000 PPM IN DIET FOR 105 WK (STUDY DURATION: 105 WK), Dose: 0, 3,500, 7,000 PPM IN DIET FOR 105 WK (STUDY DURATION: 105 WK)) “inactive; negative”.

For `C#CC(C)(C)NC(=O)c1cc(Cl)cc(Cl)c1`, the carcinogen call (Species: MOUSE, Strain/Sex: B6C3F1/MALE, Route: ORAL, Dose: 0, 20, 100, 500, 2500 PPM IN DIET FOR 12, 18 OR 24 MO (STUDY DURATION: 24 MO), Dose: 0, 20, 100, 500, 2500 PPM IN DIET FOR 12, 18 OR 24 MO (STUDY DURATION: 24 MO), Tumor Site: Type of Lesion: LIVER: HEPATOCELLULAR CARCINOMA OR ADENOMA) is “active; positive”.

Take `C`: the carcinogen call by setting is: (Species: MOUSE, Strain/Sex: NMRI/FEMALE, Route: INHALATION, Dose: 0, 7.4 MG/M3 18 HR/D 5 D/WK FOR 4 MO INCREASED TO 12.2 MG/M3 FOR 9.5 MO FOLLOWED BY CLEAN AIR FOR 9.5 MO (STUDY DURATION) “inactive; negative”; (Species: RAT, Strain/Sex: F344/FEMALE, Route: INHALATION, Dose: 0, 2.5, 6.5 MG/M3 IN AIR 16 HR/D 5 D/WK FOR 24 MO (STUDY DURATION: 25.5 MO), Dose: 0, 2.5, 6.5 MG/M3 IN AIR 16 HR/D 5 D/WK FOR 24 MO (STUDY DURATION: 25.5 MO), Tumor Site: Type of Lesion: LUNG: BENIGN OR MALIGNANT NEOPLASM) “active; positive”; (Species: RAT, Strain/Sex: F344/FEMALE, Route: INHALATION, Dose: 0, 2.5, 6.5 MG/M3 OF AIR 16 HR/D 5 D/WK FOR UP TO 24 MO (STUDY DURATION: LIFE SPAN), Dose: 0, 2.5, 6.5 MG/M3 OF AIR 16 HR/D 5 D/WK FOR UP TO 24 MO (STUDY DURATION: LIFE SPAN), Tumor Site: Type of Lesion: LUNG: MALIGNANT TUMOR) “active; positive”; (Species: RAT, Strain/Sex: F344/MALE, Route: INHALATION, Dose: 0, 2.5, 6.5 MG/M3 IN AIR 16 HR/D 5 D/WK FOR 24 MO (STUDY DURATION: 25.5 MO), Dose: 0, 2.5, 6.5 MG/M3 IN AIR 16 HR/D 5 D/WK FOR 24 MO (STUDY DURATION: 25.5 MO)) “inactive; negative”; (Species: RAT, Strain/Sex: F344/MALE, Route: INHALATION, Dose: 0, 2.5, 6.5 MG/M3 OF AIR 16 HR/D 5 D/WK FOR UP TO 24 MO (STUDY DURATION: LIFE SPAN), Dose: 0, 2.5, 6.5 MG/M3 OF AIR 16 HR/D 5 D/WK FOR UP TO 24 MO (STUDY DURATION: LIFE SPAN), Tumor Site: Type of Lesion: LUNG: MALIGNANT TUMOR) “active; positive”; (Species: RAT, Strain/Sex: WISTAR/FEMALE, Route: INHALATION, Dose: 0, 7.4 MG/M3 18 HR/D 5 D/WK FOR 4 MO INCREASED TO 12.2 MG/M3 FOR 20 MO FOLLOWED BY CLEAN AIR FOR 6 MO (STUDY DURATION: 3, Tumor Site: Type of Lesion: LUNG: TUMOR) “active; positive”.

Consider `CCCCCCCCCCCCN=C(N)N`, for which the carcinogen call runs as follows: (Species: Mouse, Strain/Sex: Crl:CD-1(ICR)BR/Female (70/Group), Route: Oral, Dose: 0, 200, 750, 1500 ppm in diet for 78 wk, study duration 78 wk. Test sample purity, 98%., Dose: 0, 200, 750, 1500 ppm in diet for 78 wk, study duration 78 wk. Test sample purity, 98%., Tumor Site: Type of Lesion: Liver: Hepatocellular adenoma and carcinoma combined (high dose only)) “active; positive, (neither tumor type, alone, was statistically significant.)”; (Species: Mouse, Strain/Sex: Crl:CD-1(ICR)BR/Male (70/Group), Route: Oral, Dose: 0, 200, 750, 1500 ppm in diet for 78 wk, study duration 78 wk. Test sample purity, 98%., Dose: 0, 200, 750, 1500 ppm in diet for 78 wk, study duration 78 wk. Test sample purity, 98%.) “inactive; negative”; (Species: Rat, Strain/Sex: Sprague-Dawley/Female (60/Group), Route: Oral, Dose: 0, 13.2, 26.5, 53.5 mg/kg/day in diet on wks 1-101, study duration 2 yrs. Test sample purity, 98.6%., Dose: 0, 13.2, 26.5, 53.5 mg/kg/day in diet on wks 1-101, study duration 2 yrs. Test sample purity, 98.6%.) “inactive; negative”; (Species: Rat, Strain/Sex: Sprague-Dawley/Male (60/Group), Route: Oral, Dose: 0, 10.2, 20.3, 41.9 mg/kg/day in diet on wks 1-101, study duration 2 yrs. Test sample purity, 98.6%, Dose: 0, 10.2, 20.3, 41.9 mg/kg/day in diet on wks 1-101, study duration 2 yrs. Test sample purity, 98.6%) “inactive; negative”.

Regarding `C#C[C@]1(OC(C)=O)CC[C@H]2[C@@H]3CCC4=CC(=O)CC[C@@H]4[C@H]3CC[C@@]21C`, the carcinogen call is “active; positive” (Species: MOUSE, Route: ORAL, Tumor Site: Type of Lesion: LIVER, PITUITARY GLAND) and “active; positive” (Species: RAT, Route: ORAL, Tumor Site: Type of Lesion: LIVER).

With `S=P(N1CC1)(N1CC1)N1CC1`, the carcinogen call is, setting by setting: (Species: MOUSE, Strain/Sex: B6C3F1/FEMALE, Route: INTRAPERITONEAL, Dose: 0, 1.15, 2.3 MG/KG 3/WK FOR 43-52 WK (STUDY DURATION: 86-87 WK), Dose: 0, 1.15, 2.3 MG/KG 3/WK FOR 43-52 WK (STUDY DURATION: 86-87 WK), Tumor Site: Type of Lesion: HEMATOPOIETIC SYSTEM (LEUKEMIA): LYMPHOCYTIC LEUKEMIA, LYMPHATIC SYSTEM: LYMPHOMA) “active; positive”; (Species: MOUSE, Strain/Sex: B6C3F1/MALE, Route: INTRAPERITONEAL, Dose: 0, 1.15, 2.3 MG/KG 3/WK FOR 52 WK (STUDY DURATION: 56-87 WK), Dose: 0, 1.15, 2.3 MG/KG 3/WK FOR 52 WK (STUDY DURATION: 56-87 WK), Tumor Site: Type of Lesion: INTEGUMENTARY SYSTEM (SKIN): SQUAMOUS CELL CARCINOMA, HEMATOPOIETIC SYSTEM (LEUKEMIA), LYMPHATIC SYSTEM: LYMPHOMA, EAR (, Tumor Site: Type of Lesion: INTEGUMENTARY SYSTEM (SKIN): SQUAMOUS CELL CARCINOMA, HEMATOPOIETIC SYSTEM (LEUKEMIA), LYMPHATIC SYSTEM: LYMPHOMA, EAR () “active; positive”; (Species: RAT, Strain/Sex: SPRAGUE-DAWLEY/FEMALE, Route: INTRAPERITONEAL, Dose: 0, 0.7, 1.4, 2.8 MG/KG 3/WK FOR 21-52 WK (STUDY DURATION: 21-87 WK), Dose: 0, 0.7, 1.4, 2.8 MG/KG 3/WK FOR 21-52 WK (STUDY DURATION: 21-87 WK), Tumor Site: Type of Lesion: MAMMARY GLAND: ADENOCARCINOMA, PITUITARY GLAND: CHROMOPHOBE ADENOMA) “active; positive”; (Species: RAT, Strain/Sex: SPRAGUE-DAWLEY/MALE, Route: INTRAPERITONEAL, Dose: 0, 0.7, 1.4, 2.8 MG/KG 3/WK FOR 19-52 WK (STUDY DURATION: 19-87 WK), Dose: 0, 0.7, 1.4, 2.8 MG/KG 3/WK FOR 19-52 WK (STUDY DURATION: 19-87 WK), Tumor Site: Type of Lesion: INTEGUMENTARY SYSTEM (SKIN): SQUAMOUS CELL CARCINOMA, INTEGUMENTARY SYSTEM (SUBCUTANEOUS TISSUE): SARCOMA, HEMATOPOIETIC, Tumor Site: Type of Lesion: INTEGUMENTARY SYSTEM (SKIN): SQUAMOUS CELL CARCINOMA, INTEGUMENTARY SYSTEM (SUBCUTANEOUS TISSUE): SARCOMA, HEMATOPOIETIC) “active; positive”.
